Results as given in US9096550B2, “Bryostatin analogues and methods of making and using thereof” (UNIVERSITY OF UTAH RESEARCH FOUNDATION, priority 2008, dated 2015).

Columns and labels:
LNCaP cells = assay: Proliferation of LNCaP cells (Incucyte confluency); assay type: cell-based, human; settings: 300 nM PMA combined with 1000 nM compound, 80 hrs
Protocol: FIGS. 12A-D show the effect of different compounds on the proliferation and apoptosis of LNCaP cells. […] Time-elapsed images were taken with an Incucyte imaging system every hour for 4 days. The proliferation of LNCaP cells is presented as increase in confluency (read by the instrument) at 80 hrs. Data represent the means+SEM of three independent experiments. […] Apoptosis was measured 2 days after treatment by flow cytometry using 7-AAD and Yo-Pro-1 as described in Materials and Methods. Data represent the means+SEM of three independent experiments.
FIGS. 13A and 13B show the proliferation and morphology of LNCaP cells detected by Incucyte. LNCaP cells were treated with DMSO as control, 300 nM PMA, 1000 nM bryostatin 1 or the bryologue MERLE 21, or with 300 nM PMA in combination with 1000 nM bryostatin 1 or the bryologue MERLE 21. Time-elapsed images were taken by the Incucyte imaging system every hour. […] The arrow indicates the time of treatment. Data are representative of three independent experiments.
The extent of confluency of LNCaP cells (from ATCC, Manassas, Va.) and the morphological changes after treatment were followed in real time using Incucyte (Essen Instruments, Ann Arbor, Mich.). Images of LNCaP cells plated into 24 well plates were taken every 1 hour by the instrument before and after treatment for a total of 4 days. The confluency of the cells was calculated by the instrument's program. The proliferation of LNCaP cells was expressed as the difference in cell confluency before and after treatment.

C3H10T1/2 cells = assay: Release of arachidonic acid from C3H10T1/2 cells; assay type: cell-based, mouse; settings: % of the maximal PMA-induced response relative to the DMSO control, 2 hour treatment
Protocol: FIGS. 15A and 15B show the release of arachidonic acid from treated C3H10T1/2 cells. The cells were labeled with [^3H]arachidonic acid for 18 hrs, treated with DMSO as control, different concentrations of PMA (0.1-100 nM), bryostatin 1 (1-1000 nM), the bryologues (1-1000 nM) (A) or 100 nM PMA in combination with 1000 nM bryostatin 1, or the bryologues MERLE 21, 22, 23. The radioactive arachidonic acid released into the medium was quantitated after 2 hour treatment. The response of 100 nM PMA was taken as 100%. Data represent the means+SEM of four (FIG. 15A) or three (FIG. 15B) independent experiments.
C3H10T1/2 cells (ATCC, Manassas, Va.) were plated in 24 well plates and treated with different drugs or with DMSO as control. The release of arachidonic acid after 2 hour treatment was measured as described previously (Dell′Aquila M L, Herald C L, Kamano Y, Pettit G R, Blumberg P M. Differential effects of byrostatins and phorbol esters on arachidonic acid metabolite release and epidermal growth factor binding in C3H10T1/2 cells. Cancer Res 1988; 48: 3702-3708).

U937 cells [1] = assay: Inhibition of U937 cell proliferation; assay type: cell-based, human
Protocol: (§1) U937 cells (Sundstrom, C.; Nilsson, K.: Establishment and characterization of a human histiocytic lymphoma cell line (U-937). Int. J. Cancer 1976, 17: 565-577.), purchased from ATCC (Manassas, Va.) and cultured in RPMI-1640 medium supplemented with 10% FBS (ATCC, Manassas, Va.), were plated in 35 mm dishes at a density of 2×10^5 living cells/ml and treated with different concentrations of the drugs or DMSO. After 72 hours, the number of cells in the supernatant (non-attached cells) and the number of attached cells (after trypsinization) were counted using a Beckman particle counter (Beckman Coulter Inc., Fullerton, Calif.). The number of attached cells is expressed as percent of total cells (FIGS. 8-10).
(§2) U937 cells were treated with PMA (0.1-100 nM), bryostatin 1 (1-1000 nM), the indicated compound (1-1000 nM), 10 nM PMA with different concentrations of bryostatin 1 (1-1000 nM) or 10 nM PMA with different concentrations of indicated compound (1-1000 nM). The number of attached and non-attached cells was counted and the number of total cells was expressed as % of control. The bars and error bars represent the average and the standard error of the mean of five independent experiments (FIGS. 8-10).
(§3) U937 cells (Sundstrom and Nilsson, 1976), purchased from ATCC (Manassas, Va.) and cultured in RPMI-1640 medium supplemented with 10% FBS (ATCC, Manassas, Va.), were plated in 35 mm dishes at a density of 1×10^5 living cells/ml and treated with different concentrations of the drugs or DMSO. After 72 hours, the number of cells in the supernatant (non-attached cells) and the number of attached cells (after trypsinization) were counted using a particle counter. The number of attached cells is expressed as percent of total cells.
U937 cells were treated with PMA (0.01-100 nM), bryostatin1 (0.1-1000 nM), analogue 12 (0.1-1000 nM), 10 nM PMA with different concentrations of bryostatin 1 (0.1-1000 nM) or 10 nM PMA with different concentrations of analogue 12 (0.1-1000 nM). The numbers of attached and non-attached cells were counted and the number of total cells was expressed as % of control. The bars and error bars represent the average and the standard error of the mean of at least three independent experiments.
as §3, with “U-937” for “U937”
as §2, with “U-937” for “U937”, “at least three” for “five”, “experiments.” for “experiments (FIGS. 8-10).”

U937 cells [2] = assay: Attachment of U937 cells; assay type: cell-based, human
Protocol: as §1
(§4) U937 cells were treated with PMA (0.1-100 nM), bryostatin 1 (1-1000 nM), the indicated compound (1-1000 nM), 10 nM PMA with different concentrations of bryostatin 1 (1-1000 nM) or 10 nM PMA with different concentrations of indicated compound (1-1000 nM) for 72 hours. The number of attached cells and total cells were counted and the attached cells were graphed as percent of total cells. The bars and error bars represent the average and the standard error of the mean of five independent experiment (FIGS. 8-10).
as §3
U937 cells were treated with PMA (0.01-100 nM), bryostatin1 (0.1-1000 nM), analogue 12 (MERLE 28) (0.1-1000 nM), 10 nM PMA with different concentrations of bryostatin 1 (0.1-1000 nM) or 10 nM PMA with different concentrations of analogue 12 (0.1-1000 nM). The number of attached cells and total cells were counted and the attached cells were graphed as percent of total cells. The bars and error bars represent the average and the standard error of the mean of at least three independent experiments.
as §3, with “U-937” for “U937”
as §4, with “U-937” for “U937”, “at least three” for “five”, “experiments.” for “experiment (FIGS. 8-10).”

[3] = 10 nM PMA with different concentrations of compound

Row | Compound | block of the PMA inhibition of LNCaP cell growth (LNCaP cells) | arachidonic acid release, average level of response (C3H10T1/2 cells) | block of PMA inhibition of U937 cell proliferation (U937 cells [1]; [3]) | inhibition of U937 cell proliferation (U937 cells [1]; compound alone) | block of PMA-induced attachment of U937 cells (U937 cells [2]; [3]) | attachment of U937 cells (U937 cells [2]; compound alone, 72 hours)
1 | C=C1C[C@@H]2C[C@@H]3CC(=C)C[C@H](/C=C/C(C)(C)[C@]4(O)O[C@@H](C/C(=C\C(=O)OC)[C@@H]4OC(=O)/C=C/C=C/CCC)C[C@H]([C@@H](C)O)OC(=O)C[C@H](O)C[C@H](C1)O2)O3 [MERLE 23] | did not appear to quite reach the level observed for bryostatin 1 | 64% |  |  |  | 
2 | C=C1C[C@@H]2C[C@@H]3CC(=C)C[C@H](/C=C/C(C)(C)[C@]4(O)O[C@@H](C/C(=C\C(=O)OC)[C@@H]4OC(=O)CCCCCCC)C[C@H]([C@@H](C)O)OC(=O)C[C@H](O)C[C@H](C1)O2)O3 [MERLE 22] | did not appear to quite reach the level observed for bryostatin 1 | 69% |  |  |  | 
3 | C=C1C[C@H]2CC3(O)O[C@H](C[C@@H](O)CC(=O)O[C@@H]([C@@H](C)O)C[C@@H]4C/C(=C\C(=O)OC)[C@H](OC(=O)/C=C/C=C/CCC)[C@@](O)(O4)C(C)(C)/C=C/[C@@H](C1)O2)C[C@H](OC(C)=O)C3(C)C [MERLE 28] |  |  | Both of these aspects of bryostatin 1 induced biological response are captured | very similar to those for bryostatin 1 | functional antagonist of PMA and blocks the effect of the phorbol ester | approaches that of bryostatin 1 itself
4 | C=C1C[C@@H]2C[C@@H]3CC(=C)C[C@H](/C=C/C(C)(C)[C@]4(O)O[C@@H](C/C(=C\C(=O)OC)[C@@H]4OC(=O)c4ccccc4)C[C@H]([C@@H](C)O)OC(=O)C[C@H](O)C[C@H](C1)O2)O3 [MERLE 21] | did not appear to quite reach the level observed for bryostatin 1 | 73% |  |  |  | 
